Experimental data as given in the kinase profiling compilation of Christmann-Franck et al. (2016).

Columns and labels:
Test in all cases: KINOMEscan competition binding
Conditions in all cases: compound 10.0 µM
ABL1 (human) = ABL1 (human) (UniProt P00519)
[1] = system: ABL1 (human), P00519 [Q252H]
ULK1 (human) = ULK1 (human) (UniProt O75385)
[2] = target: JAK2 JH1 catalytic (human) (UniProt O60674)
PRKCD (human) = PRKCD (human) (UniProt Q05655)
TGFBR1 (human) = TGFBR1 (human) (UniProt P36897)
CHEK1 (human) = CHEK1 (human) (UniProt O14757)
MAPK7 (human) = MAPK7 (human) (UniProt Q13164)
DCLK2 (human) = DCLK2 (human) (UniProt Q8N568)
RPS6KA6 KD1 (human) = RPS6KA6 KD1 (human) (UniProt Q9UK32)
NTRK1 (human) = NTRK1 (human) (UniProt P04629)
LIMK2 (human) = LIMK2 (human) (UniProt P53671)
BMX (human) = BMX (human) (UniProt P51813)
ROS1 (human) = ROS1 (human) (UniProt P08922)
FGFR2 (human) = FGFR2 (human) (UniProt P21802)
INSR (human) = INSR (human) (UniProt P06213)
CDC2L2 (human) = CDC2L2 (human) (UniProt Q9UQ88)
MST4 (human) = MST4 (human) (UniProt Q9P289)
CDK17 (human) = CDK17 (human) (UniProt Q00537)
[3] = system: ABL1 (human), P00519 [H396P]
CDK11B (human) = CDK11B (human) (UniProt P21127)
TXK (human) = TXK (human) (UniProt P42681)
PAK2 (human) = PAK2 (human) (UniProt Q13177)
MAP2K1 (human) = MAP2K1 (human) (UniProt Q02750)
TIE1 (human) = TIE1 (human) (UniProt P35590)
PRKCQ (human) = PRKCQ (human) (UniProt Q04759)
STK35 (human) = STK35 (human) (UniProt Q8TDR2)
NTRK2 (human) = NTRK2 (human) (UniProt Q16620)
MAPK14 (human) = MAPK14 (human) (UniProt Q16539)
STK32B (human) = STK32B (human) (UniProt Q9NY57)
ERBB4 (human) = ERBB4 (human) (UniProt Q15303)
NEK6 (human) = NEK6 (human) (UniProt Q9HC98)
MLTK (human) = MLTK (human) (UniProt Q9NYL2)
SRPK1 (human) = SRPK1 (human) (UniProt Q96SB4)
RIPK1 (human) = RIPK1 (human) (UniProt Q13546)
FLT1 (human) = FLT1 (human) (UniProt P17948)
STK4 (human) = STK4 (human) (UniProt Q13043)
PIK3CD (human) = PIK3CD (human) (UniProt O00329)
EPHA8 (human) = EPHA8 (human) (UniProt P29322)
DDR1 (human) = DDR1 (human) (UniProt Q08345)
SIK1 (human) = SIK1 (human) (UniProt P57059)

PAK2 (human), sequence (Q13177 whole entry, looked up): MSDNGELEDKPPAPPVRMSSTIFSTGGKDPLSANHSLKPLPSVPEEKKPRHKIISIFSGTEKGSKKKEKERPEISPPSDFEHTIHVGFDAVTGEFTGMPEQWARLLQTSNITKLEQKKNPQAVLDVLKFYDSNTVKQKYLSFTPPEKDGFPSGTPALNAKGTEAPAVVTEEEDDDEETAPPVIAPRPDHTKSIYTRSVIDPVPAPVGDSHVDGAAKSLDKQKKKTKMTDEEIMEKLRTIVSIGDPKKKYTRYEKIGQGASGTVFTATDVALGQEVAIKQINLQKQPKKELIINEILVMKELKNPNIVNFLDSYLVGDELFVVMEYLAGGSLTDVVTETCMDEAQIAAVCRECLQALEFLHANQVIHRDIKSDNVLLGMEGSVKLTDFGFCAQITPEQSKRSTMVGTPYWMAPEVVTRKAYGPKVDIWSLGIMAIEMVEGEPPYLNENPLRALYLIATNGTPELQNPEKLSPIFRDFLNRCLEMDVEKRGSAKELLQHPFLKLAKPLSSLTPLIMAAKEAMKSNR
CHEK1 (human), sequence (O14757 whole entry, looked up): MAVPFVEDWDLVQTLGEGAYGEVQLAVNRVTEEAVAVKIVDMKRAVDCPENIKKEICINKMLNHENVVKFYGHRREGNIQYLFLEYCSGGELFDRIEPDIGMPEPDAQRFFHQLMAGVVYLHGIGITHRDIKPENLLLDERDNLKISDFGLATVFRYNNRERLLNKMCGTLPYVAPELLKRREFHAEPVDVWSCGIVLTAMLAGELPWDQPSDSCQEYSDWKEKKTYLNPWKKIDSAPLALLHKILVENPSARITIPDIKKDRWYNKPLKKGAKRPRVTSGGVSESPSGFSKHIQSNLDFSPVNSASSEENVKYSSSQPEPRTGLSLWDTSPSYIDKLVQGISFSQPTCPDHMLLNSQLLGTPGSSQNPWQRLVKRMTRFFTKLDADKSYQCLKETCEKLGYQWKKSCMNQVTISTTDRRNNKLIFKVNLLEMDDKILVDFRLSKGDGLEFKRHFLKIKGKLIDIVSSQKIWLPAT
RPS6KA6 KD1 (human), sequence (Q9UK32 whole entry, looked up): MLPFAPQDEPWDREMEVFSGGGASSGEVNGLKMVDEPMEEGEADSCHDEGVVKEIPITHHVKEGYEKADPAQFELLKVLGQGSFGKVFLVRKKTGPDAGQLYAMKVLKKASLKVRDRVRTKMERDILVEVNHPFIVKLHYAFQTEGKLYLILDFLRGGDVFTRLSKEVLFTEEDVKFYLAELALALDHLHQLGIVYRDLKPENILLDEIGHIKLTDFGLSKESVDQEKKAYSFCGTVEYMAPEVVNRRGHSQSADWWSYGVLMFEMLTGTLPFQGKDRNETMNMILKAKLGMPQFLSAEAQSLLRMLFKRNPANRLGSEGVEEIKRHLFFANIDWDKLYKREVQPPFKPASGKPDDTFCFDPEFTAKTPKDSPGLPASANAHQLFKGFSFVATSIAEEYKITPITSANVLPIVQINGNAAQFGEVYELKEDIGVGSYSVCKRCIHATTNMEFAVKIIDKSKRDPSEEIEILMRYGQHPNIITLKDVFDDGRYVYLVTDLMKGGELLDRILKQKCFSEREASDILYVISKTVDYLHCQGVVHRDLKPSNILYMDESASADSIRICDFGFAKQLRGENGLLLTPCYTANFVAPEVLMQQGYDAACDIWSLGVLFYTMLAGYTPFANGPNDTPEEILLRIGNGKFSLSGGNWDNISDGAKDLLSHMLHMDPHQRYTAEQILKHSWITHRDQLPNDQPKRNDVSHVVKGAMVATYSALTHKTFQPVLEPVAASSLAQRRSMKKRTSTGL
ULK1 (human), sequence (O75385 whole entry, looked up): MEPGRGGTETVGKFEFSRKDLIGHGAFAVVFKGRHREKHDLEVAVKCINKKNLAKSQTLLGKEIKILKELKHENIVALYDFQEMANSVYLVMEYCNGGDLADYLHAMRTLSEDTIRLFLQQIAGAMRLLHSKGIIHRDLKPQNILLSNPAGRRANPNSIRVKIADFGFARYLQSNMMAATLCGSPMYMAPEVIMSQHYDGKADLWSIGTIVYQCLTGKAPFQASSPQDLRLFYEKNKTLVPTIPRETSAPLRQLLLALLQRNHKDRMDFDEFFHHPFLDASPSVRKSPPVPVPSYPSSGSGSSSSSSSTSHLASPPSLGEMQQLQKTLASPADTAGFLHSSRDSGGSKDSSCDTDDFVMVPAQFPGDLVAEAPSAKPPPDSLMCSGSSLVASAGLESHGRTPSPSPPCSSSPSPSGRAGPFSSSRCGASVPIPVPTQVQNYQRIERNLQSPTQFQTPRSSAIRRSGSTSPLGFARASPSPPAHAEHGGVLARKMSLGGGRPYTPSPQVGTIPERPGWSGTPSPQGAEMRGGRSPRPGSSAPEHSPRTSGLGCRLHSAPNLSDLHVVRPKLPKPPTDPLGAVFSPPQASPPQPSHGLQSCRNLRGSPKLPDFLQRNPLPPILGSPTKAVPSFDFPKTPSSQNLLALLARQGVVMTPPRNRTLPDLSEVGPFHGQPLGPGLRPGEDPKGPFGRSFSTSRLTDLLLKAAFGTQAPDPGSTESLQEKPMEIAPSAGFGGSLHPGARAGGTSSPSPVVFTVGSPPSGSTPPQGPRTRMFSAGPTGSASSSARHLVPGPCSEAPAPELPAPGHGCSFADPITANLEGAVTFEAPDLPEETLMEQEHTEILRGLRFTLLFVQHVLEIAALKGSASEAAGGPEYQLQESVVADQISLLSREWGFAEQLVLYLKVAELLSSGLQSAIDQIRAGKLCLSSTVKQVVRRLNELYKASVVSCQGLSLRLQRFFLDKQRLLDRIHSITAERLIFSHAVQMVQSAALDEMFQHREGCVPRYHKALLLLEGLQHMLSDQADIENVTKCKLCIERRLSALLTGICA
MLTK (human), sequence (Q9NYL2 whole entry, looked up): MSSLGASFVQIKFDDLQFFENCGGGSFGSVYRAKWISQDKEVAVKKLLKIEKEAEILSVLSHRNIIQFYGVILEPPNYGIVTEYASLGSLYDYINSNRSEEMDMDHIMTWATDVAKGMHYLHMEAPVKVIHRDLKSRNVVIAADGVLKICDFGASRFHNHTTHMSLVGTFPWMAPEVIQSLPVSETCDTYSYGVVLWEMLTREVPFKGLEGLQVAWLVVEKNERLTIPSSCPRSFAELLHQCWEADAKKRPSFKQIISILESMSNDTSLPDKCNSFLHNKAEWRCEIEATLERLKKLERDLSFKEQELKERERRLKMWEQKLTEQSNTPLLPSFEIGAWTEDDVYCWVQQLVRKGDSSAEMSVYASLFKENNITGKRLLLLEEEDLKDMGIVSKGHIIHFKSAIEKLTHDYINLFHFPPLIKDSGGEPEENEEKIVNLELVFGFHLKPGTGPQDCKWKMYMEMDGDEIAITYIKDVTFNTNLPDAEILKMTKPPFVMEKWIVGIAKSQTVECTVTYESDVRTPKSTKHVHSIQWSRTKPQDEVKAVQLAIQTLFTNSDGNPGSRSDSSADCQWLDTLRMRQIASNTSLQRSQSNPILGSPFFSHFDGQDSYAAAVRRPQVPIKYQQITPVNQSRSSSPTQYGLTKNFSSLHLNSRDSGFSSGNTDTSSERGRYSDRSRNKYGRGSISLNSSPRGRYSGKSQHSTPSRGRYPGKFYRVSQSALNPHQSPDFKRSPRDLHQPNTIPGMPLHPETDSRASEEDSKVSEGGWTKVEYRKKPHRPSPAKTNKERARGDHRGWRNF
SRPK1 (human), sequence (Q96SB4 whole entry, looked up): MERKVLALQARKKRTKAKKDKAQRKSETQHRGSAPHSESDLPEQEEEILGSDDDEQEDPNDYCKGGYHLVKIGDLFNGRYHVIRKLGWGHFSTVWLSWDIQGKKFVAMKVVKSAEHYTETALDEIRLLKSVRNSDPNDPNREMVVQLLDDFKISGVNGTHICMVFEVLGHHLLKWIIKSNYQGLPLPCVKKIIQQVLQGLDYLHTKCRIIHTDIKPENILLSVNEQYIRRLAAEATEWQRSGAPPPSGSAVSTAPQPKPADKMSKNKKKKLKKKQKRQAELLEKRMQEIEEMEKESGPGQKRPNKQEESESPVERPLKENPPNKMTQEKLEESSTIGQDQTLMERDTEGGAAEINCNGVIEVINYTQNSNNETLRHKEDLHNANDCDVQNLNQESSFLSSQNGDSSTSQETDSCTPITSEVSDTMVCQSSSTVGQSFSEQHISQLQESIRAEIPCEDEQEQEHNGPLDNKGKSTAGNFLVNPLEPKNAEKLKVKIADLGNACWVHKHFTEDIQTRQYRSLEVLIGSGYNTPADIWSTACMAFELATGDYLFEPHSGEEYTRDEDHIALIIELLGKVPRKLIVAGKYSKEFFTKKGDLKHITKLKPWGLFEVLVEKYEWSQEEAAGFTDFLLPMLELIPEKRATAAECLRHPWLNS
MAPK7 (human), sequence (Q13164 whole entry, looked up): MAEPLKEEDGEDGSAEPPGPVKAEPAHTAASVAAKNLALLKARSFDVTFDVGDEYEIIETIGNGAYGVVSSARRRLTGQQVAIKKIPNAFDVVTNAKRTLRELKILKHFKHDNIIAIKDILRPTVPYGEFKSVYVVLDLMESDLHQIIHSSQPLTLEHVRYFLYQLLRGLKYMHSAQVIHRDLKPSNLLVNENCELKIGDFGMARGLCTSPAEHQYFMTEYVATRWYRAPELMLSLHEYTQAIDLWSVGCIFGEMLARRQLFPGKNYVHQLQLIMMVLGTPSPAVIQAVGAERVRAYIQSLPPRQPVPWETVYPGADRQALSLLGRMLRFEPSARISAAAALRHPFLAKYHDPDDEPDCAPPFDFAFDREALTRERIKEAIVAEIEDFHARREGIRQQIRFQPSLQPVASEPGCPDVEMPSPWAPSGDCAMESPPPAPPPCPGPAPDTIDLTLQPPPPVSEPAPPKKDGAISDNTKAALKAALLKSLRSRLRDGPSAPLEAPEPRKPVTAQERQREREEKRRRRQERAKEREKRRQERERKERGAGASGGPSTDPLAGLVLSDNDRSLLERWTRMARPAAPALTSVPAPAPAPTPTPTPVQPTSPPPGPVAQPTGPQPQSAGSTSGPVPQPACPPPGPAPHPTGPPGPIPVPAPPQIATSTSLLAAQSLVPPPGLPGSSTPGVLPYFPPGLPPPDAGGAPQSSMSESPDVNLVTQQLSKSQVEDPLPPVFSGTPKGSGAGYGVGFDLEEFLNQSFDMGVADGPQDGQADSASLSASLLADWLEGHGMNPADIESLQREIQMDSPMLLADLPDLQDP

`CS(=O)(=O)Nc1ccc(-c2ncc(/C=C3\SC(=N)NC3=O)s2)cc1` showed a kinase still bound, per cent of control (ABL1 (human)) of 27%, a kinase still bound, per cent of control [1] of 28% and a kinase still bound, per cent of control (ULK1 (human)) of 33%.

`Nc1cccc(-c2cc(/C=C3\SC(=O)NC3=O)c[nH]c2=O)c1` showed a kinase still bound, per cent of control [2] of 6.6%.

`CS(=O)(=O)Nc1ccc(-c2cc(/C=C3\SC(=N)NC3=O)c[nH]c2=O)cc1` gave a kinase still bound, per cent of control (PRKCD (human)) of 34%, a kinase still bound, per cent of control (TGFBR1 (human)) of 24% and a kinase still bound, per cent of control (CHEK1 (human)) of 32%.

Work on `CN1C(=O)[C@H]2CCC[C@H]2N(C2CCCC2)c2nc(Nc3ccc(C(N)=O)cc3)ncc21` yielded a kinase still bound, per cent of control (MAPK7 (human)) of 0.1%, a kinase still bound, per cent of control (DCLK2 (human)) of 18% and a kinase still bound, per cent of control (RPS6KA6 KD1 (human)) of 30%.

In the case of `COc1cc(N2CCN(C)CC2)ccc1Nc1ncc2c(n1)Nc1ccccc1NC2=O`, the kinase still bound, per cent of control (MAPK7 (human)) is reported as 100%, the kinase still bound, per cent of control (NTRK1 (human)) is reported as 1.6% and the kinase still bound, per cent of control (LIMK2 (human)) is reported as 100%. It also gave a kinase still bound, per cent of control (BMX (human)) of 99%, a kinase still bound, per cent of control (ROS1 (human)) of 82% and a kinase still bound, per cent of control (PRKCD (human)) of 100%. It also gave a kinase still bound, per cent of control (TGFBR1 (human)) of 79%, a kinase still bound, per cent of control (FGFR2 (human)) of 87% and a kinase still bound, per cent of control (ABL1 (human)) of 24%. For the same compound, the kinase still bound, per cent of control (CHEK1 (human)) was 75%, the kinase still bound, per cent of control (INSR (human)) was 69% and the kinase still bound, per cent of control (CDC2L2 (human)) was 100%. The kinase still bound, per cent of control (MST4 (human)) was 67%, the kinase still bound, per cent of control (CDK17 (human)) was 93% and the kinase still bound, per cent of control [3] was 21%. For the same compound, the kinase still bound, per cent of control [1] was 14%, the kinase still bound, per cent of control [2] was 85% and the kinase still bound, per cent of control (CDK11B (human)) was 100%. The kinase still bound, per cent of control (TXK (human)) was 80%, the kinase still bound, per cent of control (PAK2 (human)) was 80% and the kinase still bound, per cent of control (MAP2K1 (human)) was 71%. It also gave a kinase still bound, per cent of control (TIE1 (human)) of 24%, a kinase still bound, per cent of control (PRKCQ (human)) of 59% and a kinase still bound, per cent of control (STK35 (human)) of 100%. It also gave a kinase still bound, per cent of control (NTRK2 (human)) of 2.4%, a kinase still bound, per cent of control (DCLK2 (human)) of 89% and a kinase still bound, per cent of control (MAPK14 (human)) of 100%. For the same compound, the kinase still bound, per cent of control (STK32B (human)) was 93%, the kinase still bound, per cent of control (ERBB4 (human)) was 62% and the kinase still bound, per cent of control (NEK6 (human)) was 99%. It also gave a kinase still bound, per cent of control (MLTK (human)) of 100%, a kinase still bound, per cent of control (SRPK1 (human)) of 100% and a kinase still bound, per cent of control (RIPK1 (human)) of 100%. It also gave a kinase still bound, per cent of control (FLT1 (human)) of 45%, a kinase still bound, per cent of control (STK4 (human)) of 100% and a kinase still bound, per cent of control (PIK3CD (human)) of 100%. The kinase still bound, per cent of control (ULK1 (human)) was 100%, the kinase still bound, per cent of control (EPHA8 (human)) was 80% and the kinase still bound, per cent of control (DDR1 (human)) was 81%. It also gave a kinase still bound, per cent of control (RPS6KA6 KD1 (human)) of 93% and a kinase still bound, per cent of control (SIK1 (human)) of 27%.

Compound `O=C1NC(=S)S/C1=C\c1ccc(-c2cncc3ccccc23)o1` has a kinase still bound, per cent of control (ROS1 (human)) of 34%, a kinase still bound, per cent of control (PAK2 (human)) of 31% and a kinase still bound, per cent of control (NEK6 (human)) of 24%. For the same compound, the kinase still bound, per cent of control (MLTK (human)) was 31% and the kinase still bound, per cent of control (FLT1 (human)) was 28%.

With `N=C1NC(=O)/C(=C/c2ccc(-c3ccc(C(N)=O)cc3O)o2)S1` the kinase still bound, per cent of control (CDK17 (human)) was 28% and the kinase still bound, per cent of control (PIK3CD (human)) was 26%.

With `N=C1NC(=O)/C(=C/c2c[nH]c(=O)c(-c3ccc(N4CCNCC4)nc3)c2)S1` the kinase still bound, per cent of control (CHEK1 (human)) was 3.4% and the kinase still bound, per cent of control (ULK1 (human)) was 33%.

In the case of `N=C1NC(=O)/C(=C/c2ccc(-c3ccc(F)cc3O)o2)S1`, the kinase still bound, per cent of control (MST4 (human)) is reported as 32% and the kinase still bound, per cent of control (SRPK1 (human)) is reported as 25%.

`CS(=O)(=O)Nc1ccc(-c2cncc(/C=C3\SC(=N)NC3=O)c2)cc1` showed a kinase still bound, per cent of control (TGFBR1 (human)) of 16%, a kinase still bound, per cent of control (ABL1 (human)) of 34% and a kinase still bound, per cent of control (STK35 (human)) of 30%. It also gave a kinase still bound, per cent of control (MLTK (human)) of 7.6% and a kinase still bound, per cent of control (SRPK1 (human)) of 11%.

Compound `N=C1NC(=O)/C(=C/c2ccc(-c3cncc4ccccc34)o2)S1` has a kinase still bound, per cent of control (TGFBR1 (human)) of 34%, a kinase still bound, per cent of control [2] of 29% and a kinase still bound, per cent of control (TXK (human)) of 13%. It also gave a kinase still bound, per cent of control (PAK2 (human)) of 24%, a kinase still bound, per cent of control (MAP2K1 (human)) of 26% and a kinase still bound, per cent of control (NEK6 (human)) of 31%. The kinase still bound, per cent of control (MLTK (human)) was 23% and the kinase still bound, per cent of control (SRPK1 (human)) was 15%.

With `COc1cc(N2CCN(C)CC2)ccc1Nc1ncc2c(n1)N(C)c1ccccc1N(C)C2=O` the kinase still bound, per cent of control (MAPK7 (human)) was 30%, the kinase still bound, per cent of control (NTRK1 (human)) was 76% and the kinase still bound, per cent of control (LIMK2 (human)) was 86%. It also gave a kinase still bound, per cent of control (BMX (human)) of 96%, a kinase still bound, per cent of control (ROS1 (human)) of 21% and a kinase still bound, per cent of control (PRKCD (human)) of 100%. For the same compound, the kinase still bound, per cent of control (TGFBR1 (human)) was 97%, the kinase still bound, per cent of control (FGFR2 (human)) was 100% and the kinase still bound, per cent of control (ABL1 (human)) was 100%. For the same compound, the kinase still bound, per cent of control (CHEK1 (human)) was 100%, the kinase still bound, per cent of control (INSR (human)) was 52% and the kinase still bound, per cent of control (CDC2L2 (human)) was 100%. For the same compound, the kinase still bound, per cent of control (MST4 (human)) was 91%, the kinase still bound, per cent of control (CDK17 (human)) was 100% and the kinase still bound, per cent of control [3] was 100%. It also gave a kinase still bound, per cent of control [1] of 100%, a kinase still bound, per cent of control [2] of 100% and a kinase still bound, per cent of control (CDK11B (human)) of 100%. The kinase still bound, per cent of control (TXK (human)) was 100%, the kinase still bound, per cent of control (PAK2 (human)) was 94% and the kinase still bound, per cent of control (MAP2K1 (human)) was 85%. For the same compound, the kinase still bound, per cent of control (TIE1 (human)) was 70%, the kinase still bound, per cent of control (PRKCQ (human)) was 83% and the kinase still bound, per cent of control (STK35 (human)) was 100%. The kinase still bound, per cent of control (NTRK2 (human)) was 100%, the kinase still bound, per cent of control (DCLK2 (human)) was 68% and the kinase still bound, per cent of control (MAPK14 (human)) was 100%. The kinase still bound, per cent of control (STK32B (human)) was 100%, the kinase still bound, per cent of control (ERBB4 (human)) was 88% and the kinase still bound, per cent of control (NEK6 (human)) was 100%. It also gave a kinase still bound, per cent of control (MLTK (human)) of 100%, a kinase still bound, per cent of control (SRPK1 (human)) of 100% and a kinase still bound, per cent of control (RIPK1 (human)) of 100%. It also gave a kinase still bound, per cent of control (FLT1 (human)) of 100%, a kinase still bound, per cent of control (STK4 (human)) of 100% and a kinase still bound, per cent of control (PIK3CD (human)) of 100%. It also gave a kinase still bound, per cent of control (ULK1 (human)) of 100%, a kinase still bound, per cent of control (EPHA8 (human)) of 100% and a kinase still bound, per cent of control (DDR1 (human)) of 93%. The kinase still bound, per cent of control (RPS6KA6 KD1 (human)) was 100% and the kinase still bound, per cent of control (SIK1 (human)) was 100%.

For `CSC1=NC(=O)/C(=C/c2c[nH]c(=O)c(-c3ccc(NS(C)(=O)=O)cc3)c2)S1`, the kinase still bound, per cent of control (ULK1 (human)) was 23%.

Work on `N=C1NC(=O)/C(=C/c2ccc(-c3csc4ccccc34)o2)S1` yielded a kinase still bound, per cent of control (NEK6 (human)) of 25% and a kinase still bound, per cent of control (DDR1 (human)) of 33%.
